Laboratory results published in patent US20110189122A1, “Use of Molt-Accelerating Compounds, Ecdysteroids, Analogs Thereof, and Chitin Synthesis Inhibitors for Controlling Termites” (priority 2004, published 2011).

Assays:
[1] = tested on: C. formosanus; assay: Feeding ecdysteroid-treated filter paper to subterranean termites, 12-day exposure; assay type: in vivo; conditions: for days of exposure until some termites exhibited the jackknife position (incomplete molting): treated filter paper
Description: (§1) Termites were collected from three colonies each of C. formosanus and R. flavipes and were held in the laboratory at 26±1° C. and 98±2% RH before use Technical grade ecdysone was dissolved in methanol to obtain 0.1, 1, 10, 100 and 1,000-ppm solutions by serial dilution. Methanol solutions (i.e., 0 ppm AI) were used as untreated controls. Each concentration solution (0.2 ml) was pipetted onto […] Whatman No. 1 filter paper fitted into 5-cm-diameter glass Petri dishes and allowed to evaporate overnight.
(§2) This filter paper served as the cellulose food source for twenty-five termites, plus one soldier for R. flavipes or three soldiers for C. formosanus, which were introduced into each Petri dish after moistening the filter paper with 0.175 ml deionized water. For each species, two subsamples each of three colonies were used per concentration for a total of 72 experimental units. The bioassay units was held at 26±1° C. Observation was made daily for 12 days. Termites showing symptoms of incomplete molting were counted, and dead termites were removed from each unit. […] For each treatment and species combination, mean percent termites showing symptoms of incomplete molting and mortality among concentrations at 12 day were arcsine-root transformed and subjected to the analysis of variance (ANOVA). Significant differences (α=0.05) among concentrations were separated using Fisher's least significant difference (LSD) test (SAS Institute 1999).
(§3) 20-hydroxyecdysone is an ecdysone byproduct. Technical grade 20-hydroxyecdysone (20 E) was dissolved and used in the same manners as was ecdysone, as discussed above in Example 1.

[2] = tested on: R. flavipes; assay: as above; assay type: in vivo; conditions: for days of exposure until some termites exhibited the jackknife position (incomplete molting): treated filter paper
Description: as §1, §2, §3

[3] = tested on: eastern subterranean termites (Reticulitermes flavipes); conditions: wood slice feeding blocks vacuum-impregnated with halofenozide, choice test; cited from earlier work
[4] = tested on: eastern subterranean termites (EST), Reticulitermes flavipes (Kollar); assay: Test #1 Choice Feeding Bait Test, Halofenozide+Hexaflumuron (treated filter paper vs. untreated SYP); assay type: in vivo; conditions: for % Surviving: 26 days; for mg consumed after 12 days (Mean ± SEM), treated FP: choice vs. SYP
Description: (§4) Test #1 Choice Feeding Bait Test, Halofenozide+Hexaflumuron. A paired choice feeding test was conducted to compare feeding response and resultant mortality caused by various combinations of technical grade halofenozide and hexaflumuron treated on filter paper (acetone carrier). The test apparatus consisted of two round plastic containers connected by a 7-cm long piece of 2.5-mm diameter (ID) tygon tubing. A known number of termite workers were introduced into a central harborage chamber (5.5 cm round container with ventilated lid) containing a vermiculite/sand/water mixture of ca. 1:1:1. The central harborage chamber was connected by the tygon tubing to the bait foraging chamber (without sand/vermiculite matrix) containing the paired feeding choices.
ESTs were given the choice to feed between untreated blocks of southern yellow pine (SYP) and treated filter paper. Halofenozide was tested individually at concentrations of 1250, 2500, and 5000 ppm. Hexaflumuron was tested at 5000 ppm, and also combined with each of the aforementioned concentrations of halofenozide. For comparative purposes, technical grade noviflumuron were also tested at 5000 ppm. After twelve days, all treatments were removed, oven-dried, and weighed for consumption. Filter paper was placed in all bioassay units that were held for fourteen more days. Surviving termites were then counted in each replicate. Thus, survival was counted at 26 days after initial exposure to the toxicant. Each treatment was replicated four times with 50 termites per replicate.

[5] = tested on: eastern subterranean termites (EST), Reticulitermes flavipes (Kollar); assay: Test #2 Choice Feeding Bait Test, Halofenozide+Noviflumuron (treated filter paper vs. untreated SYP); assay type: in vivo; conditions: for mg consumed after 14 days (Mean ± SEM), untreated SYP: SYP block offered against FP with single active 5000 ppm; for No. Survivors/50 after 14 days (Mean ± SEM) / % Surviving / mg consumed after 14 days (Mean ± SEM), treated FP: single active 5000 ppm on filter paper; for % Surviving: 14 days; for mg consumed after 14 days (Mean ± SEM), treated FP: choice vs. SYP
Description: as §4
Test #2. Choice Feeding Bait Test, Halofenozide+Noviflumuron. A standard paired choice feeding test using the same methods described in Test #1 was conducted to compare feeding response and resultant mortality caused by various combinations of technical grade halofenozide and noviflumuron treated on filter paper (acetone carrier). EST were given the choice to feed between untreated blocks of southern yellow pine (SYP) and treated filter paper. Halofenozide and noviflumuron were tested individually at concentrations of 5000 ppm. Five thousand ppm (5000-ppm) noviflumuron was also tested in combination with 1250, 2500, or 5000 ppm halofenozide. After fourteen days, all treatments were removed, oven-dried, and weighed for consumption. Because of the rapid activity of noviflumuron, surviving termites were also counted in each replicate after only 14 days of feeding. Each treatment was replicated four times with 50 termites per replicate.

[6] = tested on: C. formosanus; conditions: C. formosanus, 10,000 ppm, similar condition; cited from earlier work
[7] = tested on: Amitermes wheeleri; assay: Forced feeding test on treated purified cellulosic bait; assay type: in vivo; conditions: 5000 ppm noviflumuron on cellulosic bait
Description: A forced feeding test was conducted to compare mortality caused by different active ingredients treated on purified cellulosic bait. The test apparatus was the same as that described in Example 5. Noviflumuron was tested on the bait at 5000-ppm concentration, and also in combination with 5000-ppm Halofenozide Blank bait was also tested. Surviving termites were also counted at 28 days after initial exposure to the toxicant.

[8] = C. formosanus, 0.1 ppm, 12-day exposure
[9] = C. formosanus, 1 ppm, 12-day exposure
[10] = C. formosanus, 10 ppm, 12-day exposure
[11] = C. formosanus, 100 ppm, 12-day exposure
[12] = C. formosanus, 1,000 ppm, 12-day exposure
[13] = C. formosanus, 1,000 ppm, 12-day exposure, listed as 20 E
[14] = R. flavipes, 0.1 ppm, 12-day exposure
[15] = R. flavipes, 1 ppm, 12-day exposure
[16] = R. flavipes, 10 ppm, 12-day exposure
[17] = R. flavipes, 100 ppm, 12-day exposure
[18] = R. flavipes, 1,000 ppm, 12-day exposure
[19] = SYP block offered against FP with single active 5000 ppm
[20] = single active 1250 ppm on filter paper
[21] = single active 2500 ppm on filter paper
[22] = single active 5000 ppm on filter paper

CC(C)(O)CC[C@@H](O)[C@](C)(O)[C@H]1CC[C@@]2(O)C3=CC(=O)[C@@H]4C[C@@H](O)[C@@H](O)C[C@]4(C)[C@H]3CC[C@]12C [20-hydroxyecdysone]
% Incomplete Molting (±SE) [1, 8]: 0.00 ± 0.00a % | % Mortality (±SE) [1, 8]: 1.19 ± 0.75ab % | % Incomplete Molting (±SE) [1, 9]: 0.00 ± 0.00a % | % Mortality (±SE) [1, 9]: 10.12 ± 9.42bc % | % Incomplete Molting (±SE) [1, 10]: 0.00 ± 0.00a % | % Mortality (±SE) [1, 10]: 3.57 ± 2.26abc % | % Incomplete Molting (±SE) [1, 11]: 2.38 ± 1.19a % | % Mortality (±SE) [1, 11]: 11.90 ± 5.43c % | % Incomplete Molting (±SE) [1, 12]: 26.19 ± 6.09b % | % Mortality (±SE) [1, 12]: 74.40 ± 3.62d % | % Incomplete Molting (±SE) [1, 13]: evident | % Mortality (±SE) [1, 13]: ca. 75% | days of exposure until some termites exhibited the jackknife position (incomplete molting) ([1]; C. formosanus): approximately 7 days | % Incomplete Molting (±SE) [2, 14]: 0.00 ± 0.00a % | % Mortality (±SE) [2, 14]: 0.64 ± 0.64a % | % Incomplete Molting (±SE) [2, 15]: 0.00 ± 0.00a % | % Mortality (±SE) [2, 15]: 0.00 ± 0.00a % | % Incomplete Molting (±SE) [2, 16]: 0.00 ± 0.00a % | % Mortality (±SE) [2, 16]: 0.64 ± 0.64a % | % Incomplete Molting (±SE) [2, 17]: 3.85 ± 1.40ab % | % Mortality (±SE) [2, 17]: 76.19 ± 11.28b % | % Incomplete Molting (±SE) [2, 18]: 7.69 ± 3.29b % | % Mortality (±SE) [2, 18]: 100% | % Incomplete Molting (±SE) ([2]; R. flavipes, 1,000 ppm, 12-day exposure, listed as 20 E): evident | days of exposure until some termites exhibited the jackknife position (incomplete molting) ([2]; R. flavipes): approximately 7 days

CC(C)(C)N(NC(=O)c1ccc(Cl)cc1)C(=O)c1ccccc1 [Halofenozide, halofenozide]
concentrations at which feeding deterrence occurs [3]: greater than 4,000 ppm | mg consumed after 12 days (Mean ± SEM), untreated SYP ([4]; SYP block offered against FP with single active 1250 ppm): 9.49 ± 2.57 a mg | mg consumed after 12 days (Mean ± SEM), untreated SYP ([4]; SYP block offered against FP with single active 2500 ppm): 7.92 ± 2.13 a mg | mg consumed after 12 days (Mean ± SEM), untreated SYP [4, 19]: 14.97 ± 3.85 a mg | No. Survivors/50 after 26 days (Mean ± SEM) [4, 20]: 45.00 ± 2.04 a | % Surviving [4, 20]: 90.0% | mg consumed after 12 days (Mean ± SEM), treated FP [4, 20]: 16.05 ± 3.39 a mg | No. Survivors/50 after 26 days (Mean ± SEM) [4, 21]: 33.75 ± 6.56 bc | % Surviving [4, 21]: 67.5% | mg consumed after 12 days (Mean ± SEM), treated FP [4, 21]: 18.70 ± 4.32 a mg | No. Survivors/50 after 26 days (Mean ± SEM) [4, 22]: 23.25 ± 7.88 days | % Surviving [4, 22]: 46.5% | mg consumed after 12 days (Mean ± SEM), treated FP [4, 22]: 9.33 ± 1.41 a mg | mg consumed after 14 days (Mean ± SEM), untreated SYP [5]: 8.35 ± 3.91 a mg | No. Survivors/50 after 14 days (Mean ± SEM) [5]: 22.25 ± 5.36 b | % Surviving [5]: 44.5% | mg consumed after 14 days (Mean ± SEM), treated FP [5]: 10.12 ± 1.48 a mg | mortality [6]: 50%

O=C(NC(=O)c1c(F)cccc1F)Nc1cc(Cl)c(OC(F)(F)C(F)F)c(Cl)c1 [Hexaflumuron, hexaflumuron]
mg consumed after 12 days (Mean ± SEM), untreated SYP [4, 19]: 9.28 ± 3.55 b mg | No. Survivors/50 after 26 days (Mean ± SEM) [4, 22]: 32.5 ± 5.48 bc | % Surviving [4, 22]: 65.0% | mg consumed after 12 days (Mean ± SEM), treated FP [4, 22]: 21.20 ± 2.06 a mg

O=C(NC(=O)c1c(F)cccc1F)Nc1cc(Cl)c(OC(F)(F)C(F)C(F)(F)F)c(Cl)c1F (stereo not shown) [Noviflumuron, noviflumuron]
mg consumed after 12 days (Mean ± SEM), untreated SYP [4, 19]: 1.77 ± 1.71 b mg | No. Survivors/50 after 26 days (Mean ± SEM) [4, 22]: 5.00 ± 3.72 e | % Surviving [4, 22]: 10.0% | mg consumed after 12 days (Mean ± SEM), treated FP [4, 22]: 16.17 ± 3.64 a mg | No. Survivors/30 after 28 days [7]: reduced termite survivorship in half | % Surviving ([7]; 28 days): 43% | No. Survivors/30 after 28 days ([7]; listed as noviflumuron): 12 | mg consumed after 14 days (Mean ± SEM), untreated SYP [5]: 2.58 ± 1.03 b mg | No. Survivors/50 after 14 days (Mean ± SEM) [5]: 13.50 ± 3.52 bc | % Surviving [5]: 27.0% | % Surviving ([5]; listed as noviflumuron): 27% | mg consumed after 14 days (Mean ± SEM), treated FP [5]: 14.58 ± 2.20 a mg

C[C@H]([C@H](O)CCC(C)(C)O)[C@H]1CC[C@@]2(O)C3=CC(=O)[C@@H]4C[C@@H](O)[C@@H](O)C[C@]4(C)[C@H]3CC[C@]12C [ecdysone]
% Incomplete Molting (±SE) [1, 8]: 0.00 ± 0.00a % | % Incomplete Molting (±SE) [1, 9]: 0.00 ± 0.00a % | % Incomplete Molting (±SE) [1, 10]: 2.38 ± 2.38a % | % Incomplete Molting (±SE) [1, 11]: 8.33 ± 5.95a % | days of exposure until some termites exhibited the jackknife position (incomplete molting) ([1]; C. formosanus): approximately 7 days | mortality at 0.1 ppm ([1]; Coptotermes formosanus, 288 h, C. formosanus, 0.1 ppm, 12-day exposure, read-out: % Mortality (±SE)): 1.79 ± 1.22% | mortality at 1 ppm ([1]; Coptotermes formosanus, 288 h, C. formosanus, 1 ppm, 12-day exposure, read-out: % Mortality (±SE)): 1.19 ± 0.75% | mortality at 10 ppm ([1]; Coptotermes formosanus, 288 h, C. formosanus, 10 ppm, 12-day exposure, read-out: % Mortality (±SE)): 11.3 ± 6.55% | mortality at 100 ppm ([1]; Coptotermes formosanus, 288 h, C. formosanus, 100 ppm, 12-day exposure, read-out: % Mortality (±SE)): 100% | mortality at 1000 ppm ([1]; Coptotermes formosanus, 288 h, C. formosanus, 1,000 ppm, 12-day exposure, read-out: % Mortality (±SE)): 93.5 ± 6.55% | % Incomplete Molting (±SE) [2, 14]: 0.00 ± 0.00a % | % Incomplete Molting (±SE) [2, 15]: 0.00 ± 0.00a % | % Incomplete Molting (±SE) [2, 16]: 0.00 ± 0.00a % | % Incomplete Molting (±SE) [2, 17]: 0.00 ± 0.00a % | days of exposure until some termites exhibited the jackknife position (incomplete molting) ([2]; R. flavipes): approximately 7 days | mortality at 0.1 ppm ([2]; Reticulitermes flavipes, 288 h, R. flavipes, 0.1 ppm, 12-day exposure, read-out: % Mortality (±SE)): 0% | mortality at 1 ppm ([2]; Reticulitermes flavipes, 288 h, R. flavipes, 1 ppm, 12-day exposure, read-out: % Mortality (±SE)): 0% | mortality at 10 ppm ([2]; Reticulitermes flavipes, 288 h, R. flavipes, 10 ppm, 12-day exposure, read-out: % Mortality (±SE)): 0% | mortality at 100 ppm ([2]; Reticulitermes flavipes, 288 h, R. flavipes, 100 ppm, 12-day exposure, read-out: % Mortality (±SE)): 60.3 ± 18.1% | mortality at 1000 ppm ([2]; Reticulitermes flavipes, 288 h, R. flavipes, 1,000 ppm, 12-day exposure, read-out: % Mortality (±SE)): 100%
